Results reported in paper PMC12070605 (BMC Chemistry, 2025).

Key:
Assay type in all cases: cell-based, human
[1] = system: MCF-7 cell line; assay: Annexin V-PI flow cytometry apoptosis assay; conditions: 72 h, untreated 4.5%
[2] = system: MCF-7 cell line; assay: Cell cycle analysis by flow cytometry; conditions: 72 h, untreated 15.93%
[3] = system: MCF-7 cell line; assay: MTT cytotoxicity assay, MCF-7

SMILES	percentage of apoptotic cells ([1]; 5 µM)	percentage of apoptotic cells ([1]; 10 µM)	percentage of apoptotic cells ([1]; 20 µM)	accumulation of the cells in S phase ([2]; 5 µM)	accumulation of the cells in S phase ([2]; 10 µM)	accumulation of the cells in S phase ([2]; 20 µM)	improvement of activity compared to Erlotinib [3]
NNc1nc2ccc(Br)cc2c(=O)n1-c1ccc(Cl)cc1 [7k, 6-bromo-3-(4-chlorophenyl)-2-hydrazineylquinazolin-4(3H)-one]	17.46%	41.2%	56%	16.66%	25.65%	30.61%	6 folds
NNc1nc2ccc(Br)cc2c(=O)n1-c1ccc(F)cc1 [7j, 6-bromo-3-(4-fluorophenyl)-2-hydrazineylquinazolin-4(3H)-one]							6 folds
